Measured values: PubChem BioAssay (NCI)
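The compound was tested at five concentrations on cells cultured in 96-well plates, with a 48-hour exposure period. GI50 is the concentration that inhibits growth by half. TGI is the concentration that stops growth completely.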

Tests used:
Test in all cases: inhibition of tumour cell growth, NCI panel, 48 h
HCT-15 colon = system: HCT-15 colon
MALME-3M melanoma = system: MALME-3M melanoma
A498 renal = system: A498 renal
MDA-MB-231 breast = system: MDA-MB-231 breast
LOX IMVI melanoma = system: LOX IMVI melanoma
786-0 renal = system: 786-0 renal
CCRF-CEM leukemia = system: CCRF-CEM leukemia
DU-145 prostate = system: DU-145 prostate
OVCAR-4 ovarian = system: OVCAR-4 ovarian
CAKI-1 renal = system: CAKI-1 renal
K-562 leukemia = system: K-562 leukemia
U251 CNS = system: U251 CNS
RPMI-8226 leukemia = system: RPMI-8226 leukemia
IGROV1 ovarian = system: IGROV1 ovarian
HOP-92 NSCLC = system: HOP-92 NSCLC
TK-10 renal = system: TK-10 renal
HS 578T breast = system: HS 578T breast
SNB-19 CNS = system: SNB-19 CNS
OVCAR-3 ovarian = system: OVCAR-3 ovarian
M14 melanoma = system: M14 melanoma
T-47D breast = system: T-47D breast
HCC-2998 colon = system: HCC-2998 colon
UO-31 renal = system: UO-31 renal
NCI-H460 lung = system: NCI-H460 lung
MCF7 breast = system: MCF7 breast
OVCAR-8 ovarian = system: OVCAR-8 ovarian
SW-620 colon = system: SW-620 colon
RXF 393 renal = system: RXF 393 renal
NCI-H23 lung = system: NCI-H23 lung
SR leukemia = system: SR leukemia
UACC-257 melanoma = system: UACC-257 melanoma
MDA-MB-435 = system: MDA-MB-435
SK-MEL-28 melanoma = system: SK-MEL-28 melanoma
A549 NSCLC = system: A549 NSCLC
SF-268 CNS = system: SF-268 CNS
SF-295 CNS = system: SF-295 CNS
SK-MEL-2 melanoma = system: SK-MEL-2 melanoma
SK-OV-3 ovarian = system: SK-OV-3 ovarian
HCT-116 colon = system: HCT-116 colon
MOLT-4 leukemia = system: MOLT-4 leukemia
EKVX NSCLC = system: EKVX NSCLC
ACHN renal = system: ACHN renal
SF-539 CNS = system: SF-539 CNS
HOP-62 NSCLC = system: HOP-62 NSCLC
NCI/ADR-RES ovarian = system: NCI/ADR-RES ovarian
PC-3 prostate = system: PC-3 prostate
OVCAR-5 ovarian = system: OVCAR-5 ovarian
MDA-N = system: MDA-N
NCI-H522 lung = system: NCI-H522 lung
HL-60(TB) leukemia = system: HL-60(TB) leukemia
SK-MEL-5 melanoma = system: SK-MEL-5 melanoma
HT29 colon = system: HT29 colon
UACC-62 melanoma = system: UACC-62 melanoma
SNB-75 CNS = system: SNB-75 CNS
SN12C renal = system: SN12C renal
KM12 colon = system: KM12 colon
NCI-H226 lung = system: NCI-H226 lung
COLO 205 colon = system: COLO 205 colon
BT-549 breast = system: BT-549 breast

## Cc1ccc(SCC(CF)OCn2cc(F)c(=O)[nH]c2=O)cc1 (stereo not given)
HCT-15 colon
  TGI: > 100 µM
MALME-3M melanoma
  TGI: > 100 µM
A498 renal
  TGI: > 100 µM
MDA-MB-231 breast
  TGI: > 100 µM
LOX IMVI melanoma
  TGI: > 100 µM
786-0 renal
  TGI: > 100 µM
CCRF-CEM leukemia
  TGI: > 100 µM
DU-145 prostate
  TGI: > 100 µM
OVCAR-4 ovarian
  TGI: > 100 µM
CAKI-1 renal
  TGI: > 100 µM
K-562 leukemia
  TGI: > 100 µM
U251 CNS
  TGI: > 100 µM
RPMI-8226 leukemia
  TGI: > 100 µM
IGROV1 ovarian
  TGI: > 100 µM
HOP-92 NSCLC
  TGI: > 100 µM
TK-10 renal
  TGI: > 100 µM
HS 578T breast
  TGI: > 100 µM
SNB-19 CNS
  TGI: > 100 µM
OVCAR-3 ovarian
  TGI: > 100 µM
M14 melanoma
  TGI: > 100 µM
T-47D breast
  TGI: > 100 µM
HCC-2998 colon
  TGI: > 100 µM
UO-31 renal
  TGI: > 100 µM
NCI-H460 lung
  TGI: > 100 µM
MCF7 breast
  TGI: > 100 µM
OVCAR-8 ovarian
  TGI: > 100 µM
SW-620 colon
  TGI: > 100 µM
RXF 393 renal
  TGI: > 100 µM
NCI-H23 lung
  TGI: > 100 µM
SR leukemia
  TGI: > 100 µM
UACC-257 melanoma
  TGI: > 100 µM
MDA-MB-435
  TGI: > 100 µM
SK-MEL-28 melanoma
  TGI: > 100 µM
A549 NSCLC
  TGI: > 100 µM
SF-268 CNS
  TGI: > 100 µM
SF-295 CNS
  TGI: > 100 µM
SK-MEL-2 melanoma
  TGI: > 100 µM
SK-OV-3 ovarian
  TGI: > 100 µM
HCT-116 colon
  TGI: > 100 µM
MOLT-4 leukemia
  TGI: > 100 µM
EKVX NSCLC
  TGI: > 100 µM
ACHN renal
  TGI: > 100 µM
SF-539 CNS
  TGI: > 100 µM
HOP-62 NSCLC
  TGI: > 100 µM
NCI/ADR-RES ovarian
  TGI: > 100 µM
PC-3 prostate
  TGI: > 100 µM
OVCAR-5 ovarian
  TGI: > 100 µM
MDA-N
  TGI: > 100 µM
NCI-H522 lung
  TGI: > 100 µM
HL-60(TB) leukemia
  TGI: > 100 µM
SK-MEL-5 melanoma
  TGI: > 100 µM
HT29 colon
  TGI: > 100 µM

## O=c1[nH]c(=S)[nH]n1C(=S)n1[nH]c(=S)[nH]c1=O
HCT-15 colon
  TGI: > 100 µM
MALME-3M melanoma
  TGI: > 100 µM
A498 renal
  TGI: > 100 µM
MDA-MB-231 breast
  TGI: > 100 µM
LOX IMVI melanoma
  TGI: > 100 µM
786-0 renal
  TGI: > 100 µM
UACC-62 melanoma
  TGI: > 100 µM
SNB-75 CNS
  TGI: > 100 µM
CCRF-CEM leukemia
  TGI: > 100 µM
DU-145 prostate
  TGI: > 100 µM
OVCAR-4 ovarian
  TGI: > 100 µM
CAKI-1 renal
  TGI: > 100 µM
K-562 leukemia
  TGI: > 100 µM
U251 CNS
  TGI: > 100 µM
RPMI-8226 leukemia
  TGI: > 100 µM
IGROV1 ovarian
  TGI: > 100 µM
SN12C renal
  TGI: > 100 µM
HOP-92 NSCLC
  TGI: > 100 µM
TK-10 renal
  TGI: > 100 µM
HS 578T breast
  TGI: > 100 µM
SNB-19 CNS
  TGI: > 100 µM
OVCAR-3 ovarian
  TGI: > 100 µM
M14 melanoma
  TGI: > 100 µM
KM12 colon
  TGI: > 100 µM
T-47D breast
  TGI: > 100 µM
HCC-2998 colon
  TGI: > 100 µM
UO-31 renal
  TGI: > 100 µM
NCI-H460 lung
  TGI: > 100 µM
NCI-H226 lung
  TGI: > 100 µM
MCF7 breast
  TGI: 40.6 µM
OVCAR-8 ovarian
  TGI: > 100 µM
SW-620 colon
  TGI: > 100 µM
RXF 393 renal
  TGI: > 100 µM
NCI-H23 lung
  TGI: > 100 µM
SR leukemia
  TGI: > 100 µM
UACC-257 melanoma
  TGI: > 100 µM
MDA-MB-435
  TGI: > 100 µM
SK-MEL-28 melanoma
  TGI: > 100 µM
A549 NSCLC
  TGI: > 100 µM
SF-268 CNS
  TGI: > 100 µM
SF-295 CNS
  TGI: > 100 µM
SK-MEL-2 melanoma
  TGI: > 100 µM
COLO 205 colon
  TGI: > 100 µM
HCT-116 colon
  TGI: > 100 µM
MOLT-4 leukemia
  TGI: > 100 µM
EKVX NSCLC
  TGI: > 100 µM
ACHN renal
  TGI: > 100 µM
SF-539 CNS
  TGI: > 100 µM
HOP-62 NSCLC
  TGI: > 100 µM
NCI/ADR-RES ovarian
  TGI: > 100 µM
PC-3 prostate
  TGI: > 100 µM
OVCAR-5 ovarian
  TGI: > 100 µM
MDA-N
  TGI: > 100 µM
NCI-H522 lung
  TGI: > 100 µM
HL-60(TB) leukemia
  TGI: > 100 µM
SK-MEL-5 melanoma
  TGI: > 100 µM
HT29 colon
  TGI: > 100 µM

## Cc1cc(I)cc(CN(C)CCN2CCCC2)c1O
HCT-15 colon
  GI50: 24.4 µM
  TGI: 73.7 µM
MALME-3M melanoma
  GI50: 24.3 µM
  TGI: 44.7 µM
A498 renal
  GI50: 32.7 µM
  TGI: 67.2 µM
MDA-MB-231 breast
  GI50: 22 µM
  TGI: 67.3 µM
LOX IMVI melanoma
  GI50: 17.8 µM
  TGI: 35.2 µM
786-0 renal
  GI50: 21.1 µM
  TGI: 59.8 µM
UACC-62 melanoma
  GI50: 17.2 µM
  TGI: 33.2 µM
SNB-75 CNS
  GI50: 17.5 µM
  TGI: 47.2 µM
CCRF-CEM leukemia
  GI50: 22.3 µM
  TGI: 86 µM
DU-145 prostate
  GI50: 32.3 µM
  TGI: > 100 µM
OVCAR-4 ovarian
  GI50: 38.7 µM
  TGI: > 100 µM
CAKI-1 renal
  GI50: 29.6 µM
  TGI: > 93.3 µM
K-562 leukemia
  GI50: 8.53 µM
  TGI: 26.4 µM
U251 CNS
  GI50: 31.5 µM
  TGI: > 95.8 µM
RPMI-8226 leukemia
  GI50: 19.2 µM
  TGI: 46.2 µM
IGROV1 ovarian
  GI50: 20.9 µM
  TGI: 53.8 µM
SN12C renal
  GI50: 41.3 µM
  TGI: > 100 µM
HOP-92 NSCLC
  GI50: 16.8 µM
  TGI: 68.1 µM
TK-10 renal
  GI50: 18.6 µM
  TGI: 39.3 µM
HS 578T breast
  GI50: 31.6 µM
  TGI: 67.1 µM
SNB-19 CNS
  GI50: 34 µM
  TGI: > 100 µM
OVCAR-3 ovarian
  GI50: 38.2 µM
  TGI: > 100 µM
M14 melanoma
  GI50: 15.8 µM
  TGI: 34.8 µM
KM12 colon
  GI50: 32.8 µM
  TGI: 81.3 µM
T-47D breast
  GI50: 21.5 µM
  TGI: 76 µM
HCC-2998 colon
  GI50: 16 µM
  TGI: 35.9 µM
UO-31 renal
  GI50: 28.7 µM
  TGI: > 88.9 µM
NCI-H460 lung
  GI50: 28.3 µM
  TGI: 85.4 µM
NCI-H226 lung
  GI50: 47.9 µM
  TGI: > 100 µM
MCF7 breast
  GI50: 24.3 µM
  TGI: 53.7 µM
OVCAR-8 ovarian
  GI50: 46.7 µM
  TGI: > 100 µM
SW-620 colon
  GI50: 23.2 µM
  TGI: 60 µM
RXF 393 renal
  GI50: 20.7 µM
  TGI: 63.6 µM
NCI-H23 lung
  GI50: 39 µM
  TGI: > 100 µM
SR leukemia
  GI50: 1.79 µM
  TGI: 5.84 µM
UACC-257 melanoma
  GI50: 32.2 µM
  TGI: 51.4 µM
MDA-MB-435
  GI50: 18.3 µM
  TGI: 42.4 µM
SK-MEL-28 melanoma
  GI50: 17.7 µM
  TGI: 35.4 µM
A549 NSCLC
  GI50: 37.9 µM
  TGI: > 100 µM
SF-268 CNS
  GI50: 32.4 µM
  TGI: > 88.2 µM
SF-295 CNS
  GI50: 13.1 µM
  TGI: 36.6 µM
SK-MEL-2 melanoma
  GI50: 25.6 µM
  TGI: 63.1 µM
COLO 205 colon
  GI50: 19 µM
  TGI: 40.2 µM
SK-OV-3 ovarian
  GI50: 37.9 µM
  TGI: > 100 µM
HCT-116 colon
  GI50: 18.3 µM
  TGI: > 88.1 µM
MOLT-4 leukemia
  GI50: 3.35 µM
  TGI: 21 µM
EKVX NSCLC
  GI50: 41.2 µM
  TGI: > 100 µM
BT-549 breast
  GI50: 18.7 µM
  TGI: 48.8 µM
ACHN renal
  GI50: 25.7 µM
  TGI: > 84.4 µM
SF-539 CNS
  GI50: 21 µM
  TGI: 53.3 µM
HOP-62 NSCLC
  GI50: 24.1 µM
  TGI: 87.5 µM
NCI/ADR-RES ovarian
  GI50: 30.1 µM
  TGI: > 100 µM
PC-3 prostate
  GI50: 28.2 µM
  TGI: > 100 µM
OVCAR-5 ovarian
  GI50: 32.8 µM
  TGI: > 93.6 µM
NCI-H522 lung
  GI50: 19.9 µM
  TGI: 43.4 µM
HL-60(TB) leukemia
  GI50: 10.9 µM
  TGI: 34.2 µM
SK-MEL-5 melanoma
  GI50: 20.2 µM
  TGI: 34.8 µM
HT29 colon
  GI50: 17.3 µM
  TGI: 35.5 µM
